Test results published in patent US20100031452A1, “AZO DYES” (Universite Catholique de Louvain, priority 2008, published 2010).
In brackets after ≈: the same amount, converted by molar mass. Like-named read-outs stand apart in the source and are kept apart here. Marks after values point to notes of the source that are not given here.

Experiments:
[1] = test system: fish eggs cells; experiment: Fish egg test; format: in vivo; conditions: for Fish egg test (IC50 in mg L^−1): in vivo
Method: (§1) Toxicity was assessed on human intestinal cells (Caco-2), bacterial cells (Lumistox assays) and fish eggs cells. Mutagenicity was assessed through classical Ames test.

[2] = test system: human intestinal cells (Caco-2); experiment: Caco-2 cytotoxicity test; format: cell-based; conditions: for Caco-2 cytotoxicity test (IC50 in g L^−1): Caco-2 human intestinal cells
Method: as §1
(§2) The toxicity of compound 4 has been measured on Caco-2 human cells as previously described, and compared with the toxicity of compound 1.

[3] = test system: bacterial cells (Lumistox assays); experiment: Lumistox test (luminescence inhibition); format: cell-based
Method: as §1

[4] = Ames test: mutagenicity; format: cell-based; conditions: classical Ames test
Method: as §1

[5] = Caco-2 cytotoxicity test; format: cell-based, human; conditions: Caco-2 cells; Caco-2 human intestinal cells; read-out: Caco-2 cytotoxicity test (IC50 in g L^−1)
Method: as §1, §2

[6] = classical Ames test; published data; cited from earlier work

Compound	Fish egg test (IC50 in mg L^−1) [1] [mg/L]	Caco-2 cytotoxicity test (IC50 in g L^−1) [2] [g/L]	Ames test: mutagenicity [4]	Lumistox test % of luminescence inhibition at maximal OD ([3]; at maximal OD) [%]	also measured
CCN(CCO)c1ccc(N=Nc2ccc([N+](=O)[O-])cc2)cc1 [Disperse Red 1]	250 to 500	>1	Negative	–	Lumistox test % of luminescence inhibition at maximal OD ([3]; saturated solution): 61.3*** %
Nc1c(S(=O)(=O)O)cc(/N=N/c2c(S(=O)(=O)O)cc(NC3CCCCC3)c3c2C(=O)c2ccccc2C3=O)c2c1C(=O)c1ccccc1C2=O [Compound 1, 1-[(4-amino-9,10-dioxo-3-sulfo-9,10-dihydroanthracen-1-yl)diazenyl]-4-cyclohexylamino-9,10-dioxo-9,10-dihydroanthracene-2-sulfonic acid]	–	–	Negative	–	IC50 ([1]; read-out: Fish egg test (IC50 in mg L^−1)): 294 µg/mL (≈ 411 µM); toxicity (in words) ([2]; in the range tested, with regards to other molecules available on the market): low toxicity; IC50 [5]: > 1000 µg/mL; Lumistox test % of luminescence inhibition at maximal OD ([3]; up to a maximal optical density (OD) of 1800): 41.6** %
O=C1c2ccccc2C(=O)c2c(/N=N\c3cccc(S(=O)(=O)O)c3)c(S(=O)(=O)O)cc(NC3CCCCC3)c21 [Compound 4, 4-Cyclohexylamino-9,10-dioxo-1-(3-sulfo-phenylazo)-9,10-dihydro-anthracene-2-sulfonic acid]	–	–	–	–	toxicity less than the toxicity of compound 1 ([2]; Caco-2 human cells, FIG. 3, relative to compound 1): 30%
Nc1c(N=Nc2ccc(-c3ccc(N=Nc4cc(S(=O)(=O)[O-])c5ccccc5c4N)cc3)cc2)cc(S(=O)(=O)[O-])c2ccccc12.[Na+].[Na+] [Direct Red 28]	<30	0.3 ± 0.02	–	3.4	Ames test: mutagenicity [6]: Positive*
O=C(Nc1cc(S(=O)(=O)[O-])cc2cc(S(=O)(=O)[O-])c(N=Nc3cc(Nc4nc(Cl)nc(Nc5ccc(S(=O)(=O)[O-])cc5)n4)ccc3S(=O)(=O)[O-])c(O)c12)c1ccccc1.[Na+].[Na+].[Na+].[Na+] [Reactive Red 4]	500 to 1000	0.7 ± 0.06	Negative	25.9	–
Nc1ccc2cc(S(=O)(=O)[O-])cc(O)c2c1N=Nc1ccc(Cl)cc1C(F)(F)F.[Na+] [Acid Red 299]	250 to 500	>1	Positive	50.2	–
